Consider one molecule from patent US10071034B2, “Solvent compositions” (Amyris, Inc., priority 2014, dated 2018).

This data set in a line: Oxidative stability. The format is physicochemical. On the procedure: For each sample, a test composition was stored for 104 weeks at 25° C. The amount of composition remaining was tested and compared to the amount at the initial time. Further samples were stored for 6 days at 60° C. The amount of composition remaining was tested and compared to the amount at the initial time.

Molecules are shown by their SMILES.

In the case of `C=C(C)[C@H]1CC=C(C)CC1` [d-limonene], the “amount of composition remaining compared to initial” value turned out to be 52.3% (6 Days @ 60° C.) and 24.0% (104 Weeks @ 25° C.). Moreover, the “oxidative stability in comparison” value (d-limonene versus Example 2 composition) is given as “less than that of the present solvent embodiment”.
